Results on 4 compounds are retold here after patent US12559529B2, “NPY2 receptor agonists” (Boehringer Ingelheim International GmbH, priority 2019, dated 2026).

The target in experiment [1] is T1, Human Neuropeptide Y2 Receptor (Homo sapiens, UniProt P49146).
T1 construct: purchased CHEMICON HTS066M
T1 sequence (P49146 1-381): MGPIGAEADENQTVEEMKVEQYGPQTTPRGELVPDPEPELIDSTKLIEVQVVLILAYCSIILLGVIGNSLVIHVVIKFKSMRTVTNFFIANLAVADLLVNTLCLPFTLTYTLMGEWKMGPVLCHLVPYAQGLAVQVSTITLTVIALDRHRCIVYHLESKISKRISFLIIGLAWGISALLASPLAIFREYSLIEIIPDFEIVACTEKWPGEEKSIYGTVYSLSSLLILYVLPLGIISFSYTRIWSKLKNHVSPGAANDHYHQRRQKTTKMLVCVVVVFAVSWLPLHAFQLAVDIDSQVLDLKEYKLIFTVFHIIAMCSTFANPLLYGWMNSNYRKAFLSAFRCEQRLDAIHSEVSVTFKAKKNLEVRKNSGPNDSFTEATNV
Nature of the experiment: Radioligand binding competition assay (RLB). The note with it: Table 3; human 125I-PYY (1-36) 0.02 nM, Y2 receptor membranes; read-out: Ki. The method, boiled down: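 IC50 values come from nonlinear regression of sigmoidal dose-response curves of filter-bound radioactivity. Peptides competed with radioligand at human Y2 receptor membranes (0.5 μg protein/well) for 2 h at room temperature in pH 7.4 HEPES buffer containing Mg2+, Ca2+ and 0.2% ovalbumin.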

The target in another experiment is T2, human NPY1 receptor (Homo sapiens, UniProt P25929).
T2 construct: expressed in transfected cells; host or cells: CHO-K1
T2 sequence (P25929 1-384): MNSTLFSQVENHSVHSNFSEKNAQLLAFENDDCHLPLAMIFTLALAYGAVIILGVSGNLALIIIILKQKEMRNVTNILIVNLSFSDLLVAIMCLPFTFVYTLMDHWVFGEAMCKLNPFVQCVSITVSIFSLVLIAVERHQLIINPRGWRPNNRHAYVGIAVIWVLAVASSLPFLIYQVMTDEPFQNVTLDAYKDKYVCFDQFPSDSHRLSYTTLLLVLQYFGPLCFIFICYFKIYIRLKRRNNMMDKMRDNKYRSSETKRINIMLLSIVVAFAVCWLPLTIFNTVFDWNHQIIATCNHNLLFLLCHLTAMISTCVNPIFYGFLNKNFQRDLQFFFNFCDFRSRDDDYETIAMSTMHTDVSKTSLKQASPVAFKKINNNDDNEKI
Nature of the experiment: HTRF cAMP Gi assay, hY1R. The format is cell-based. The note with it: Table 4; CHO-K1 cells. (TR-FRET usually uses a lanthanide donor and a delayed reading to cut background.)

In the next experiment the target is T3, human NPY4 receptor (Homo sapiens, UniProt P50391).
T3 construct: expressed in transfected cells; host or cells: CHO-K1
T3 sequence (P50391 whole entry): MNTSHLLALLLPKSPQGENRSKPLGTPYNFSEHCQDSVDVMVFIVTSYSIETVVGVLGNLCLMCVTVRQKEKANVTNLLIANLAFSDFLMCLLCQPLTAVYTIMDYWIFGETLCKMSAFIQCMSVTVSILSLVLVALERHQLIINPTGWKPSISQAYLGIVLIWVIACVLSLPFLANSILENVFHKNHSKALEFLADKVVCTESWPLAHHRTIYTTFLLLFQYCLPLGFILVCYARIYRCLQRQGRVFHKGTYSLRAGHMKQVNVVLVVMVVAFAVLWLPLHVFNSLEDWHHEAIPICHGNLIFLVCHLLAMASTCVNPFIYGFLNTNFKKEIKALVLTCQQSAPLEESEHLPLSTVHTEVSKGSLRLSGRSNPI
Kind of experiment: HTRF cAMP Gi assay, hY4R. The format is cell-based. The note with it: Table 4; CHO-K1 cells.

In the next experiment the test system is normal NMRI mice. Kind of experiment: Effect on acute food intake in normal NMRI mice. The class given is in vivo. The note with it: male NMRI mice, 10 nmol/kg subcutaneously once. The method, boiled down:
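Male NMRI mice acclimatized in an HM-2 real-time food intake monitoring system, fasted 6 h before dark phase. Single subcutaneous dose of 10 nmol/kg peptide given 1 h before dark; n=7-8. Food intake expressed as % of vehicle group (50 mM phosphate pH7, 5% Mannitol).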

The target in the next experiment is T4, human NPY2 receptor (Homo sapiens, UniProt P49146).
T4 sequence (P49146 1-381): T1 sequence (P49146 1-381)
Kind of experiment: HTRF cAMP Gi assay, hY2R.

The target in another experiment is T5, human NPY5 receptor (Homo sapiens, UniProt Q15761).
T5 sequence (Q15761 1-445): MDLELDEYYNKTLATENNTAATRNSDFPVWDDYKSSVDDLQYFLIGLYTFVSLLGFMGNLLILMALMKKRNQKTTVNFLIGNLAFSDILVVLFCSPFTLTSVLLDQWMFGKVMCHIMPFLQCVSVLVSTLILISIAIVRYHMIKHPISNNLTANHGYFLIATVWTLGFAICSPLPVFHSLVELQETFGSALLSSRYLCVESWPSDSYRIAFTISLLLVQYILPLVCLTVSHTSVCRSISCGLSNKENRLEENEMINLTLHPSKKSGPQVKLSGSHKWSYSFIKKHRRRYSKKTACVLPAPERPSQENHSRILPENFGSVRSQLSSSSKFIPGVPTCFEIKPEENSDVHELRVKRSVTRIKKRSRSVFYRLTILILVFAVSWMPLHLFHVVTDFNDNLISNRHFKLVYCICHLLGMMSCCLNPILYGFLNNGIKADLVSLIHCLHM
Nature of the experiment: HTRF cAMP Gi assay, hY5R.

Description for human NPY1 receptor: (§1) Briefly, the production of intracellular cAMP will generate a competition between unlabeled cAMP and exogenously added d2-cAMP for anti-cAMP antibodies conjugated to cryptate. CHO-K1 cells stably expressing the human NPY1, NPY2, NPY4 and NPY5 receptors were used with the cells brought to life from a frozen stock immediately before assay performance. 2000 cells per well were applied for all four NPY receptor subtype assays. A 384-well format was used applying a total volume of 20 μl using 5 μl cells, 2.5 μl peptide agonist, 2.5 μl forskolin and 5 μl of each of the fluorophores. […] Concentration-response evaluation of compounds was performed with 11 concentrations of agonist peptides (covering 3 decades). EC50 values were calculated by nonlinear regression using sigmoid concentration-response with variable slope.
Description for human NPY2 receptor: as §1
Excerpt for human NPY4 receptor: The Homogenous Time Resolved fluorescence (HTRF) technology optimized for Gi coupled receptors has thoroughly been described in Cisbio cAMP Gi kit manual. Briefly, the production of intracellular cAMP will generate a competition between unlabeled cAMP and exogenously added d2-cAMP for anti-cAMP antibodies conjugated to cryptate. CHO-K1 cells stably expressing the human NPY1, NPY2, NPY4 and NPY5 receptors were used with the cells brought to life from a frozen stock immediately before assay performance. 2000 cells per well were applied for all four NPY receptor subtype assays. A 384-well format was used applying a total volume of 20 μl using 5 μl cells, 2.5 μl peptide agonist, 2.5 μl forskolin and 5 μl of each of the fluorophores. […] Concentration-response evaluation of compounds was performed with 11 concentrations of agonist peptides (covering 3 decades). EC50 values were calculated by nonlinear regression using sigmoid concentration-response with variable slope.

Usually Ki stands for a measure of affinity in units of concentration, obtained from inhibition or displacement. Broadly, the EC50 is the concentration giving half of the maximal effect. Low values mean a more potent agent, high ones a less potent agent. For `CC(C)CC(=O)N[C@@H](C)C(=O)N1CCC[C@H]1C(=O)N[C@@H](CCC(=O)O)C(=O)N[C@@H](CCCCNC(=O)COCCOCCNC(=O)COCCOCCNC(=O)CC[C@H](NC(=O)CCCCCCCCCCCCCCCCC(=O)O)C(=O)O)C(=O)N1CCC[C@H]1C(=O)N[C@@H](CCC(=O)O)C(=O)N[C@@H](CCC(=O)O)C(=O)N[C@@H](CC(=O)O)C(=O)N[C@@H](C)C(=O)N[C@@H](CO)C(=O)N[C@@H](CCC(=O)O)C(=O)N[C@@H](CCC(=O)O)C(=O)N[C@@H](CCC(=O)O)C(=O)N[C@@H](CC(C)C)C(=O)N[C@@H](CCC(N)=O)C(=O)N[C@@H](CCC(=O)O)C(=O)N[C@@H](Cc1ccc(O)cc1)C(=O)N[C@@H](Cc1ccc(O)cc1)C(=O)N[C@H](C(=O)N[C@@H](CO)C(=O)N[C@@H](CC(C)C)C(=O)N[C@@H](CCCNC(=N)N)C(=O)N[C@@H](Cc1c[nH]cn1)C(=O)N[C@@H](Cc1ccc(O)cc1)C(=O)N[C@@H](Cc1ccc(O)cc1)C(=O)N[C@@H](CC(N)=O)C(=O)N[C@@H](Cc1c[nH]c2ccccc12)C(=O)N[C@@H](CC(C)C)C(=O)N[C@H](C(=O)N[C@@H](CCCNC(=N)N)C(=O)N[C@@H](CCC(N)=O)C(=O)N[C@@H](CCCNC(=N)N)C(=O)N[C@@H](Cc1ccc(O)cc1)C(N)=O)[C@@H](C)O)C(C)C` [Compound 164, N{alpha-4}-(3-methylbutanoyl)-N{epsilon-7}-[2-(2-{2-[2-(2-{2-[(4S)-4-carboxy-4-(17-carboxyheptadecanamido)butanamido]ethoxy}ethoxy)acetamido]ethoxy}ethoxy)acetamido]-[4A,7K,9E,14E,18Q,19E,22V,28Y,30W,31L]hPYY (4-36)], the inhibition constant (Ki) in experiment [1] amounted to 4.33 nM. The EC50 is greater than 5000 nM on human NPY1 receptor, greater than 5000 nM on human NPY4 receptor, 0.235 nM on human NPY2 receptor and greater than 5000 nM at human NPY5 receptor. Also, the “Acute Food Intake 24 h [% vehicle]” value in the experiment with normal NMRI mice is 64 % vehicle.

As for `CC(C)CC(=O)N[C@@H](C)C(=O)N1CCC[C@H]1C(=O)N[C@@H](CCC(=O)O)C(=O)N[C@@H](CCCCNC(=O)COCCOCCNC(=O)COCCOCCNC(=O)CC[C@H](NC(=O)CCCCCCCCCCCCCCCCC(=O)O)C(=O)O)C(=O)N1CCC[C@H]1C(=O)N[C@@H](CCC(=O)O)C(=O)N[C@@H](CCC(=O)O)C(=O)N[C@@H](CC(=O)O)C(=O)N[C@@H](C)C(=O)N[C@@H](CCC(=O)O)C(=O)N1CCC[C@H]1C(=O)N[C@@H](CCC(=O)O)C(=O)N[C@@H](CCC(=O)O)C(=O)N[C@@H](CC(C)C)C(=O)N[C@@H](CCC(N)=O)C(=O)N[C@@H](CCC(N)=O)C(=O)N[C@@H](Cc1ccc(O)cc1)C(=O)N[C@@H](Cc1ccc(O)cc1)C(=O)N[C@H](C(=O)N[C@@H](CO)C(=O)N[C@@H](CC(C)C)C(=O)N[C@@H](CCCNC(=N)N)C(=O)N[C@@H](Cc1c[nH]cn1)C(=O)N[C@@H](Cc1ccc(O)cc1)C(=O)N[C@@H](Cc1ccc(O)cc1)C(=O)N[C@@H](CC(N)=O)C(=O)N[C@@H](Cc1c[nH]c2ccccc12)C(=O)N[C@@H](CC(C)C)C(=O)N[C@H](C(=O)N[C@@H](CCCNC(=N)N)C(=O)N[C@@H](CCC(N)=O)C(=O)N[C@@H](CCCNC(=N)N)C(=O)N[C@@H](Cc1ccc(O)cc1)C(N)=O)[C@@H](C)O)C(C)C` [Compound 18, N{alpha-4}-(3-methylbutanoyl)-N{epsilon-7}-[2-(2-{2-[2-(2-{2-[(4S)-4-carboxy-4-(17-carboxyheptadecanamido)butanamido]ethoxy}ethoxy)acetamido]ethoxy}ethoxy)acetamido]-[4A,7K,9E,13E,18Q,19Q,22V,28Y,30W,31L]hPYY (4-36)], the Ki in experiment [1] amounted to 3.71 nM. In addition, the EC50 on human NPY1 receptor was greater than 5000 nM; at human NPY4 receptor, greater than 5000 nM; on human NPY2 receptor, 0.167 nM; on human NPY5 receptor, greater than 5000 nM. Further, the “Acute Food Intake 24 h [% vehicle]” value with normal NMRI mice is reported as 58 % vehicle.

On to `CC(C)CC(=O)N[C@@H](C)C(=O)N1CCC[C@H]1C(=O)N[C@@H](CCC(=O)O)C(=O)N[C@@H](CCCCNC(=O)COCCOCCNC(=O)COCCOCCNC(=O)CC[C@H](NC(=O)CCCCCCCCCCCCCCCCC(=O)O)C(=O)O)C(=O)N1CCC[C@H]1C(=O)N[C@@H](CCC(=O)O)C(=O)N[C@@H](CCC(=O)O)C(=O)N[C@@H](CC(=O)O)C(=O)N[C@@H](C)C(=O)N[C@@H](CCC(=O)O)C(=O)N1CCC[C@H]1C(=O)N[C@@H](CCC(=O)O)C(=O)N[C@@H](CCC(=O)O)C(=O)N[C@@H](CC(C)C)C(=O)N[C@@H](CCC(N)=O)C(=O)N[C@@H](CCC(=O)O)C(=O)N[C@@H](Cc1ccc(O)cc1)C(=O)N[C@@H](Cc1ccc(O)cc1)C(=O)N[C@H](C(=O)N[C@@H](CO)C(=O)N[C@@H](CC(C)C)C(=O)N[C@@H](CCCNC(=N)N)C(=O)N[C@@H](Cc1c[nH]cn1)C(=O)N[C@@H](Cc1ccc(O)cc1)C(=O)N[C@@H](Cc1ccc(O)cc1)C(=O)N[C@@H](CC(N)=O)C(=O)N[C@@H](Cc1c[nH]c2ccccc12)C(=O)N[C@@H](CC(C)C)C(=O)N[C@H](C(=O)N[C@@H](CCCNC(=N)N)C(=O)N[C@@H](CCC(N)=O)C(=O)N[C@@H](CCCNC(=N)N)C(=O)N[C@@H](Cc1ccc(O)cc1)C(N)=O)[C@@H](C)O)C(C)C` [Compound 105, N{alpha-4}-(3-methylbutanoyl)-N{epsilon-7}-[2-(2-{2-[2-(2-{2-[(4S)-4-carboxy-4-(17-carboxyheptadecanamido)butanamido]ethoxy}ethoxy)acetamido]ethoxy}ethoxy)acetamido]-[4A,7K,9E,13E,18Q,19E,22V,28Y,30W,31L]hPYY (4-36)], for which the inhibitory constant (Ki) in experiment [1] was found to be 6.94 nM. The EC50 at human NPY1 receptor was greater than 5000 nM; at human NPY4 receptor, greater than 5000 nM; at human NPY2 receptor, 0.284 nM; on human NPY5 receptor, greater than 5000 nM. Further, in the experiment on normal NMRI mice, the “Acute Food Intake 24 h [% vehicle]” value was determined as 72 % vehicle.

In the case of `CC[C@H](C)[C@H](NC(=O)[C@H](CCC(=O)O)NC(=O)[C@H](CCC(=O)O)NC(=O)[C@@H]1CCCN1C(=O)[C@H](CO)NC(=O)[C@H](C)NC(=O)[C@H](CC(=O)O)NC(=O)[C@H](CCC(=O)O)NC(=O)[C@H](CCC(=O)O)NC(=O)[C@@H]1CCCN1C(=O)[C@H](CCCCNC(=O)COCCOCCNC(=O)COCCOCCNC(=O)CC[C@H](NC(=O)CCCCCCCCCCCCCCCCC(=O)O)C(=O)O)NC(=O)[C@H](CCC(=O)O)NC(=O)[C@@H]1CCCN1C(=O)[C@H](C)NC(=O)CC(C)C)C(=O)N[C@@H](CCC(N)=O)C(=O)N[C@@H](CCC(N)=O)C(=O)N[C@@H](Cc1ccc(O)cc1)C(=O)N[C@@H](Cc1ccc(O)cc1)C(=O)N[C@H](C(=O)N[C@@H](CO)C(=O)N[C@@H](CC(C)C)C(=O)N[C@@H](CCCNC(=N)N)C(=O)N[C@@H](Cc1c[nH]cn1)C(=O)N[C@@H](Cc1ccc(O)cc1)C(=O)N[C@@H](Cc1ccc(O)cc1)C(=O)N[C@@H](CC(N)=O)C(=O)N[C@@H](Cc1c[nH]c2ccccc12)C(=O)N[C@@H](CC(C)C)C(=O)N[C@H](C(=O)N[C@@H](CCCNC(=N)N)C(=O)N[C@@H](CCC(N)=O)C(=O)N[C@@H](CCCNC(=N)N)C(=O)N[C@@H](Cc1ccc(O)cc1)C(N)=O)[C@@H](C)O)C(C)C` [Compound 11, N{alpha-4}-(3-methylbutanoyl)-N{epsilon-7}-[2-(2-{2-[2-(2-{2-[(4S)-4-carboxy-4-(17-carboxyheptadecanamido)butanamido]ethoxy}ethoxy)acetamido]ethoxy}ethoxy)acetamido]-[4A,7K,9E,17I,18Q,19Q,22V,28Y,30W,31L]hPYY (4-36)], the EC50 on human NPY1 receptor was greater than 5000 nM; on human NPY4 receptor, greater than 5000 nM; on human NPY2 receptor, 0.334 nM; on human NPY5 receptor, greater than 5000 nM. The “Acute Food Intake 24 h [% vehicle]” value in the experiment on normal NMRI mice is 42 % vehicle.
